Assays:
Type in all cases: in vivo
[1] = test system: Common Cutworm (Spodoptera Litura); assay: Insecticidal effect on common cutworm (Test Example 2); settings: 50 ppm; cabbage leaf immersed about 30 seconds; second-instar larvae; 25° C.; eight days after the inoculation
Excerpt: Insecticidal Effect on Common Cutworm (Spodoptera Litura)
A piece of cabbage leaf (cultivar; Shikidori) was immersed for about 30 seconds in a liquid chemical prepared by diluting a preparation containing each compound listed in Table 1, 2 or 3 as an active ingredient to adjust the concentration to 50 ppm. After air-dryness, it was placed in a plastic Petri dish with a diameter of 9 cm and inoculated with second-instar larvae of common cutworm, after which the dish was closed and then allowed to stand in a room thermostatted at 25° C. Eight days after the inoculation, the dead and alive were counted. The mortality was calculated according to the following equation and the insecticidal effect was judged according to the criterion shown in Test Example 1. The test was carried out with triplicate groups of 10 insects. [formula]

[2] = test system: Smaller tea Tortrix (Adoxophyes sp.); assay: Insecticidal effect on smaller tea tortrix (Test Example 3); settings: 50 ppm; tea leaf immersed 30 seconds; larvae; 25° C., humidity 70%; eight days after the inoculation
Protocol: Insecticidal Effect on Smaller tea Tortrix (Adoxophyes sp.)
A leaf of tea tree was immersed for 30 seconds in a liquid chemical containing each compound listed in Table 1, 2 or 3 as an active ingredient to adjust the concentration to 50 ppm. After air-dryness, the leaf was transferred to a plastic dish with a diameter of 9 cm and inoculated with larval smaller tea tortrix. Then, the leaf was allowed to stand in a room thermostatted at 25° C. at a humidity of 70%. Eight days after the inoculation, the dead and alive were counted, and the insecticidal effect was judged according to the same criterion as mentioned in Test Example 1. The test was carried out with triplicate groups of 10 insects.

[3] = test system: Diamond Back Moth (Plutella xylostella); assay: Insecticidal effect on diamond back moth (Test Example 1); settings: 50 ppm; Chinese cabbage seedling with deposited eggs immersed about 30 seconds; 25° C.; six days after the immersion
Procedure, shortened: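 Mortality was scored six days after treatment by counting hatched insects, in three groups of 10. Treatment meant immersing egg-bearing cabbage seedlings (two days post-oviposition) for about 30 seconds in 50 ppm compound preparation, then drying and holding at 25° C.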

| Structure (SMILES) | Test Example 2 insecticidal effect (mortality) [1] | Test Example 3 insecticidal effect (mortality) [2] | Test Example 1 insecticidal effect (mortality) [3] |
| --- | --- | --- | --- |
| Cc1cc(C(F)(C(F)(F)F)C(F)(F)F)ccc1NC(=O)c1cccc(I)c1C(=O)NC(C)CCS(C)(=O)=O (stereo not drawn) [Compound No. 196, 3-Iodo-N^1-(4-heptafluoroisopropyl-2-methylphenyl)-N^2-(1-methyl-3-methylsulfonylpropyl)-phthalamide] | A (100) | A (100) | A (100) |
| Cc1cc(OC(F)(F)F)ccc1NC(=O)c1cccc(Br)c1C(=O)NC(C)C[S+](C)[O-] (stereo not drawn) [compound 87] | C (89-80) | – | A (100) |
| CC(C[S+](C)[O-])NC(=O)c1c(Cl)cccc1C(=O)Nc1ccc(OC(F)(F)F)cc1Cl (stereo not drawn) [compound 381] | A (100) | – | A (100) |
| CC(C)(CS(C)(=O)=O)NC(=O)c1c(Br)cccc1C(=O)Nc1ccc(OC(F)(F)F)cc1Cl [compound 228] | A (100) | – | A (100) |
| C[S+]([O-])CC(C)(C)NC(=O)c1c(Br)cccc1C(=O)Nc1ccc(OC(F)(F)F)cc1Cl (stereo not drawn) [compound 232] | A (100) | – | A (100) |
| CCS(=O)(=O)CC(C)(C)NC(=O)c1c(I)cccc1C(=O)Nc1ccc(OC(F)(F)F)cc1C [compound 250] | A (100) | – | A (100) |
| CSCC(C)NC(=O)c1c(Br)cccc1C(=O)Nc1ccc(OC(F)(F)F)cc1Cl (stereo not drawn) [compound 337] | A (100) | – | A (100) |
| Cc1cc(OC(F)(F)F)ccc1NC(=O)c1cccc(Cl)c1C(=O)NC(C)C[S+](C)[O-] (stereo not drawn) [compound 143] | D (79-50) | – | A (100) |
| CSCC(C)NC(=O)c1cc(I)ccc1C(=O)Nc1ccc(C(F)(F)C(F)(F)F)cc1C (stereo not drawn) [compound 108] | A (100) | – | A (100) |
| CSCC(C)NC(=O)c1c(I)cccc1C(=O)Nc1ccc(OC(F)(F)F)cc1Cl (stereo not drawn) [compound 233] | A (100) | – | A (100) |
| Cc1cc(OC(F)(F)F)ccc1NC(=O)c1cccc(I)c1C(=O)NC(C)CSc1ccccn1 (stereo not drawn) [compound 74] | D (79-50) | – | A (100) |
| Cc1cc(Oc2ncc(C(F)(F)F)cc2Cl)ccc1NC(=O)c1cccc(I)c1C(=O)NC(C)C[S+](C)[O-] (stereo not drawn) [compound 410] | A (100) | – | A (100) |
| Cc1cc(OC(F)(F)F)ccc1NC(=O)c1cccc(I)c1C(=O)NC(C)(C)C[S+](C)[O-] (stereo not drawn) [compound 141] | A (100) | – | A (100) |
| Cc1cc(OC(F)(F)F)ccc1NC(=O)c1cccc(Br)c1C(=O)NC(C)CS(C)(=O)=O (stereo not drawn) [compound 88] | C (89-80) | – | A (100) |
| CSCCC(C)NC(=O)c1c(I)cccc1C(=O)Nc1ccc(C(F)(C(F)(F)F)C(F)(F)F)cc1C (stereo not drawn) [Compound No. 195, 3-Iodo-N^1-(4-heptafluoroisopropyl-2-methylphenyl)-N^2-(1-methyl-3-methylsulfenylpropyl)-phthalamide] | A (100) | A (100) | A (100) |
| CSCC(C)NC(=O)c1c(C(=O)Nc2ccc(C(F)(C(F)(F)F)C(F)(F)F)cc2C)cccc1S(C)(=O)=O (stereo not drawn) [Compound No. 191, N^1-(4-Heptafluoroisopropyl-2-methylphenyl)-N^2-(1-methyl-2-methylthioethyl)-3-methylsulfonylphthalamide] | A (100) | – | A (100) |
| COCC[S+]([O-])CC(C)NC(=O)c1c(I)cccc1C(=O)Nc1ccc(C(F)(C(F)(F)F)C(F)(F)F)cc1C (stereo not drawn) [compound 340] | A (100) | – | A (100) |
| CCN(CCCSC)C(=O)c1c(F)cccc1C(=O)Nc1ccc(C(F)(C(F)(F)F)C(F)(F)F)cc1C [2-6] | D (79-50) | – | A (100) |
| Cc1cc(C(F)(F)C(F)(F)F)ccc1NC(=O)c1cccc(Cl)c1C(=O)NC(C)C[S+](C)[O-] (stereo not drawn) [compound 144] | A (100) | – | A (100) |
| CSCC(C)NC(=O)c1c(OC(F)(F)F)cccc1C(=O)Nc1ccc(C(F)(C(F)(F)F)C(F)(F)F)cc1C (stereo not drawn) [Compound No. 210, N^1-(4-Heptafluoroisopropyl-2-methylphenyl)-N^2-3-(1-methyl-2-methylthioethyl)-3-trifluoromethoxyphthalamide] | A (100) | A (100) | A (100) |
| Cc1cc(C(F)(F)C(F)(F)F)ccc1NC(=O)c1cccc([N+](=O)[O-])c1C(=O)NC(C)(C)CS(C)(=O)=O [compound 375] | A (100) | – | A (100) |
| Cc1cc(OC(F)(F)F)ccc1NC(=O)c1ccc(Cl)c(Cl)c1C(=O)NC(C)C[S+](C)[O-] (stereo not drawn) [compound 193] | D (79-50) | – | A (100) |
| CSCCC(C)NC(=O)c1cccc(I)c1C(=O)Nc1ccc(C(F)(C(F)(F)F)C(F)(F)F)cc1C (stereo not drawn) [Compound No. 162, 6-Iodo-N^1-(4-heptafluoroisopropyl-2-methylphenyl)-N^2-(1-methyl-3-methylthiopropyl)phthalamide] | A (100) | A (100) | A (100) |
| CC(CS(C)(=O)=O)NC(=O)c1c(I)cccc1C(=O)Nc1cc2c(cc1Cl)OC(F)C(F)(F)O2 (stereo not drawn) [compound 102] | A (100) | – | A (100) |
| Cc1cc(OC(F)(F)F)ccc1NC(=O)c1cccc(I)c1C(=O)NC(C)CS(=O)(=O)C(C)(C)C (stereo not drawn) [compound 139] | A (100) | – | A (100) |
